Measured values from patent publication US10968190B2, “Processes for preparing oxathiazin-like compounds” (GEISTLICH PHARMA AG, priority 2014, dated 2021).
≈ marks a conversion by molar mass, not a printed value.

What was measured:
[1] = test system: cancers identified herein; assay: Administration to patients having cancers (Example 5); type: in vivo; conditions: Example 5, present tense
Description: Each of these compounds is administered with Vitamin D3, a derivative, metabolite or analog thereof and the combination is found to increase the anti-tumor effects of the compounds.

[2] = test system: murine SMA560 glioma cancer stem cells (CSC)
Description: (§1) The mouse SMA560 glioma cell line was used to provide tumor bulk cells and CSCs. […] Mouse CSCs were generated from the SMA560 glioma cell line and cultured for 7 days.

[3] = test system: murine SMA 560 bulk glioma cells; conditions: SMA 560 bulk cells, 24 h and 48 h incubation
Description: as §1

[4] = test system: human glioblastoma bulk cells; conditions: Rodak et al., J. Neurosurg., 102, 1055-68, 2005; cited from earlier work
[5] = test system: cancer stem cells (CSC) derived from four glioblastoma patients; assay: Cytotoxicity in cancer stem cells from glioblastoma patients; type: cell-based, human; conditions: for Cytotoxicity EC50, Mean ± SD: mean of CSCs from four glioblastoma patients, 24 h
Description: Tissue samples from high grade gliomas WHO grade IV from newly diagnosed patients (medium age of 54±10 years) were minced mechanically, digested enzymatically and the dissociated cells were filtered. The isolated tumor cells were cultured as bulk cells. Cancer Stem Cells (CSCs) were isolated by the formation of neurospheres under neurosphere conditions (using neurobasal medium) from the murine SMA 560 glioma cell line or from freshly isolated human glioblastoma cells.
The number of remaining adherent cells were stained (crystal violet or Alamar Blue) and quantified by absorbance measurements (540 nm). Cell survival was expressed as the percentage of cells surviving relative to the number of cells surviving in untreated control cultures. The results are given as % killing rate or EC50 as the dose required for half-maximal cytotoxicity. Results
CSCs were isolated from glioblastoma tissue resected from four patients. […].

Row | SMILES | effectiveness in treating cancers in patients [1] | safety for use in patients [1] | further results
1 | O=S1(=O)CCNCO1 [A1] | effective in treating such cancers | safe for use in patients | –
2 | O=S1(=O)CCNCN1 [taurultam] | – | – | sensitivity of CSCs versus corresponding glioma bulk cells, based on EC50 ([2]; mouse SMA 560 CSCs vs bulk cells): ~2 fold; Cytotoxicity EC50 ([2]; murine CSCs cultured 7 days, 24 hours treatment): 10 µg/mL; Cytotoxicity EC50 [3]: 19.3 µg/mL; EC50 [4]: ~50 µg/mL (≈ 367 µM); Cytotoxicity EC50 (μg/ml) 24 h ([5]; CSC GBM #3, 24 h): 10.5 µg/mL; Cytotoxicity EC50 (μg/ml) 24 h ([5]; CSC GBM #4, 24 h): 12.5 µg/mL; Cytotoxicity EC50 (μg/ml) 24 h ([5]; CSC GBM #5, 24 h): 11 µg/mL; Cytotoxicity EC50 (μg/ml) 24 h ([5]; CSC GBM #6, 24 h): 9 µg/mL; Cytotoxicity EC50, Mean ± SD [5]: 11 ± 1.4 µg/mL; Cytotoxicity EC50, Mean ± SD ([5]; listed as Taurultam): 11 ± 1.4 µg/mL
3 | O=S1(=O)CCOCN1CN1COCCS1(=O)=O [compound 2245] | effective in treating such cancers | safe for use in patients | –
4 | O=S1(=O)CCN(CN2COCCS2(=O)=O)CN1 [B1] | effective in treating such cancers | safe for use in patients | –
5 | O=S1(=O)CCN(CN2CCS(=O)(=O)OC2)CN1 [B2] | effective in treating such cancers | safe for use in patients | –
6 | CN1COCCS1(=O)=O [compound 2255] | effective in treating such cancers | safe for use in patients | –
7 | O=S1(=O)CCN(CN2CCS(=O)(=O)OC2)CO1 [B3] | effective in treating such cancers | safe for use in patients | –
8 | O=S1(=O)CCOCO1 [A3] | effective in treating such cancers | safe for use in patients | –
